According to ChEMBL document CHEMBL1201862, “PubChem BioAssay data set” (2004):
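A five-concentration, 48-hour dose response in 96-well plates underlies each endpoint, interpolated linearly between surrounding concentrations. The concentration for 50% growth inhibition is given as GI50.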 Calls of active or inactive are those of the source. Cut-off read from the data, not from the text of the source: active = GI50 up to about 1.1 µM and inactive = higher.

How the values were obtained:
Test in all cases: NCI anticancer screen, dose series, 48 h
[1] = tested on: 786-0
[2] = tested on: A498
[3] = tested on: A549
[4] = tested on: ACHN
[5] = tested on: CAKI-1
[6] = tested on: CCRF-CEM
[7] = tested on: COLO 205
[8] = tested on: DU-145
[9] = tested on: EKVX
[10] = tested on: HCC 2998
[11] = tested on: HCT-116
[12] = tested on: HCT-15
[13] = tested on: HL-60
[14] = tested on: HOP-62
[15] = tested on: HT-29
[16] = tested on: Hs-578T
[17] = tested on: IGROV-1
[18] = tested on: K562
[19] = tested on: KM12
[20] = tested on: LOX IMVI
[21] = tested on: M14
[22] = tested on: MCF7
[23] = tested on: MDA-MB-231
[24] = tested on: MDA-MB-435
[25] = tested on: MDA-N
[26] = tested on: Malme-3M
[27] = tested on: NCI-H226
[28] = tested on: NCI-H23
[29] = tested on: NCI-H460
[30] = tested on: NCI-H522
[31] = tested on: NCI/ADR-RES
[32] = tested on: OVCAR-3
[33] = tested on: OVCAR-4
[34] = tested on: OVCAR-8
[35] = tested on: PC-3
[36] = tested on: RXF 393
[37] = tested on: SF-268
[38] = tested on: SF-295
[39] = tested on: SF-539
[40] = tested on: SK-MEL-28
[41] = tested on: SK-MEL-2
[42] = tested on: SK-MEL-5
[43] = tested on: SK-OV-3
[44] = tested on: SN12C
[45] = tested on: SNB-19
[46] = tested on: SNB-75
[47] = tested on: SW-620
[48] = tested on: T47D
[49] = tested on: TK-10
[50] = tested on: U-251
[51] = tested on: UACC-257
[52] = tested on: UACC-62
[53] = tested on: UO-31
[54] = tested on: BT-549
[55] = tested on: HOP-92
[56] = tested on: MOLT-4
[57] = tested on: OVCAR-5
[58] = tested on: RPMI-8226
[59] = tested on: SR

Measured: GI50

Cc1nnc(Nc2ccc(Cl)cc2)o1
> 10 µM: [12]
inactive: [1] > 10 µM | [2] > 10 µM | [3] > 10 µM | [4] > 10 µM | [5] > 10 µM | [6] > 10 µM | [7] > 10 µM | [8] > 10 µM | [9] > 10 µM | [10] > 10 µM | [11] > 10 µM | [13] > 10 µM | [14] > 10 µM | [15] > 10 µM | [16] > 10 µM | [17] > 10 µM | [18] > 10 µM | [19] > 10 µM | [20] > 10 µM | [21] > 10 µM | [22] > 10 µM | [23] > 10 µM | [24] > 10 µM | [25] > 10 µM | [26] > 10 µM | [27] > 10 µM | [28] > 10 µM | [29] > 10 µM | [30] > 10 µM | [31] > 10 µM | [32] > 10 µM | [33] > 10 µM | [34] > 10 µM | [35] > 10 µM | [36] > 10 µM | [37] > 10 µM | [38] > 10 µM | [39] > 10 µM | [40] > 10 µM | [41] > 10 µM | [42] > 10 µM | [43] > 10 µM | [44] > 10 µM | [45] > 10 µM | [46] > 10 µM | [47] > 10 µM | [48] > 10 µM | [49] > 10 µM | [50] > 10 µM | [51] > 10 µM | [52] > 10 µM | [53] > 10 µM

CCN(CCCN(CC)C(=O)Nc1ccccc1)C(=O)Nc1ccccc1
> 100 µM: [12]
inactive: [1] > 100 µM | [3] > 100 µM | [4] > 100 µM | [54] > 100 µM | [5] > 100 µM | [6] > 100 µM | [7] > 100 µM | [8] > 100 µM | [9] > 100 µM | [10] > 100 µM | [11] > 100 µM | [13] > 100 µM | [14] > 100 µM | [55] > 100 µM | [15] > 100 µM | [17] > 100 µM | [18] > 100 µM | [19] > 100 µM | [20] > 100 µM | [21] > 100 µM | [22] > 100 µM | [23] > 100 µM | [24] > 100 µM | [25] > 100 µM | [56] > 100 µM | [26] 66.1 µM | [27] > 100 µM | [28] > 100 µM | [29] > 100 µM | [30] > 100 µM | [31] > 100 µM | [32] > 100 µM | [33] > 100 µM | [57] > 100 µM | [34] > 100 µM | [35] > 100 µM | [58] > 100 µM | [36] > 100 µM | [38] > 100 µM | [39] > 100 µM | [40] > 100 µM | [41] > 100 µM | [42] > 100 µM | [43] > 100 µM | [44] > 100 µM | [45] > 100 µM | [46] > 100 µM | [59] > 100 µM | [47] > 100 µM | [48] > 100 µM | [49] > 100 µM | [50] > 100 µM | [51] > 100 µM | [52] > 100 µM | [53] > 100 µM
